Results as given in paper PMC10945555, “Improving Activity of New Arylurea Agents against Multidrug-Resistant and Biofilm-Producing Staphylococcus epidermidis” (ACS Medicinal Chemistry Letters, 2024).
Values after ≈ are worked out from the molar mass of the structure shown.

Columns and labels:
BJ cells = test: Cytotoxicity, MTT assay, skin fibroblasts; assay type: cell-based, human; settings: for IC50: Homo sapiens, MTT, 24 h, n = 3
Description: The following cell models were used in the research: rat cardiomyocytes (H9c2 line) and human skin fibroblasts (BJ line). All cell lines used in the work are commercially available and were purchased from ATCC banks (the American Type Culture Collection, Manassas, VI, USA). Cell cultures were carried out in an incubator under standard conditions (37°C, 5% CO 2).
Culture media (Dulbecco's Modified Eagle's Medium -DMEM (H9c2) and Eagle's Minimum Essential Medium-EMEM (BJ) were supplemented with 10% bovine serum and a 1% mixture of penicillin and streptomycin antibiotics. […]
doxorubicin (a cytotoxic drug) were used as reference and positive control, respectively. […]
solution (5 mg/mL) was transferred into culture medium of incubated cells. After 3 h, once dark crystals of formazan were produced in cells, medium was aspirated and 100 μ L of DMSO was added to dissolve formazan. Absorbance of DMSO solution was read on a multiwell plate reader (Spectra Max iD3, Molecular Devices) at 570 nm. In order to determine viability, absorbance of experimental wells was divided by absorbance of contro l well (not treated) and multiplied by 100 (%). Three separate experiments were performed. IC 50 was calculated using non-linear regression method in OriginPro software. […]

[1] = tested on: Escherichia coli ATCC 25922; test: MIC, Gram-negative reference strain; assay type: cell-based; settings: for MIC: Escherichia coli, ATCC25922
Description: (§1) 2 Biological assay protocols
(§2) Microbiological tests were carried out under aseptic conditions in a laminar chamber of the 2nd […]
(§3) (BioTectum 1.2, Alchem Poland). The assessment of antimicrobial activity was carried out for final compounds in the form of free bases, soluble in DMSO (Merck, Germany), at the initial […]
(§4) concentration of 1 mg/mL. […]
(§5) were provided by Cayman Chemical, USA.
(§6) The activity of all newly synthesized compounds was tested in vitro on a panel of selected reference strains from the American Type Culture Collection (ATCC) of Gram-positive […]
(§7) 2.2 Effect of evaluated compounds on planktonic cells
(§8) The susceptibility of three reference bacterial strains (Staphylococcus epidermidis ATCC […]
(§9) Table S1) and 81 clinical MDR S. epidermidis (Table S2) to the tested compounds was assessed by determining the MIC value (Minimal Inhibitory Concentration) by microdilution in a liquid medium in 96-well flat-bottom cell culture plates (Nest Biotechnology Scientific, USA). The antibacterial properties of the compo unds were tested in the concentration range from 50 µg/mL to 0.1 µg/mL by making a series of double dilutions of the compound in liquid Mueller -Hinton II Broth Cation Adjusted (MHB II, BBL TM, USA) according to the European Committee on […]
(§10) Antimicrobial Susceptibility Testing guidelines (EUCAST).2,3 The determinations were performed twice. The MIC50 and MIC90 values were determined for each of the tested

[2] = tested on: Pseudomonas aeruginosa ATCC 27853; test: MIC, Gram-negative reference strain; assay type: cell-based; settings: for MIC: Pseudomonas aeruginosa, ATCC27853, read-out: MIC P. aeruginosa
Description: as §1, §2, §3, §4, §5, §6, §7, §8, §9, §10

[3] = tested on: Acinetobacter baumannii ATCC 19606; test: MIC, Gram-negative reference strain; assay type: cell-based; settings: for MIC: Acinetobacter baumannii, ATCC19606
Description: as §1, §2, §3, §4, §5, §6, §7, §8, §9, §10

[4] = tested on: Staphylococcus epidermidis no. 44; test: Real-time bacterial growth analysis; assay type: cell-based; settings: real-time growth analysis and MBC/MIC ratio
Description: (reduction of navy blue resazurin to pink resorufin in the presence of metabolically active cells) compared to the negative (sterile medium without bacteria and compounds) and positive control (medium with bacteria).9 The minimal biofilm eradication concentration value was analyzed using a high throughput screening the MBEC Assay® Kit (Innovotech, Canada), formerly the Calgary Biofilm Device, according to the manufacturer's insert.10
2.4.1 Determination of biofilm viability by confocal laser scanning microscope (CLSM) […]
by the selected strains was observed using the confocal laser scanning microscopy technique (CLSM, model Inverted Microscope for Industry Leica DMi8, Wetzlar, Germany). Biofilms were grown on Millicell® EZ SLIDE slides (Merck, Germany)11 and incubated with FilmTracer™ SYPRO™ Ruby Biofilm Matrix Stain (ThermoFisher Scientific, USA).12 2.5 Evaluation of bacteriostatic/bactericidal properties […]
determining MBC (Minimal Bactericidal Concentration) values. The study was conducted in accordance with the guidelines of the Clinical and Laboratory Standards Institute (CLSI).13 The MBC value was assumed to be the concentration of the compound inhibiting the growth of strains in 99.9%. Then, the value of the MBC/MIC ratio was calculated to assess its bactericidal or bacteriostatic activity. […]
compound 25 and linezolid expressed as changes in OD600 over time. […]

SMILES	IC50 (BJ cells) [µg/mL]	MIC E. coli [1]	MIC [1] [µg/mL]	MIC P. aeruginosa [2]	MIC [2] [µg/mL]	MIC A. baumannii [3]	MIC [3] [µg/mL]	visible change in the appearance of the cells (BJ cells; 18 hours, sector F 25 µM, G 50 µM, tested 2.5-50 µM)	bacteriostatic/bactericidal properties [4]
O=S(=O)(NC1CCN(CCC(Oc2ccc(C(F)(F)F)cc2)c2ccccc2)CC1)c1cccc(Cl)c1 (stereo not drawn) [Compound 12]	7.4 (≈ 13.4 µM)	–	–	–	–	–	–	–	–
O=S(=O)(NC1CCN(CCC(Oc2ccc(C(F)(F)F)cc2)c2cccs2)CC1)c1cccc(Cl)c1 (stereo not drawn) [Compound 14]	9.9 (≈ 17.7 µM)	–	–	–	–	–	–	–	–
O=C(Nc1cccc(Cl)c1)NC1CCN(CCC(Oc2ccc(C(F)(F)F)cc2)c2cccs2)CC1 (stereo not drawn) [Compound 25]	13.2 (≈ 24.5 µM)	exceeded 50 µg/mL	50 (≈ 92.9 µM)	exceeded 50 µg/mL	50 (≈ 92.9 µM)	exceeded 50 µg/mL	50 (≈ 92.9 µM)	visible in sector F and G	bacteriostatic properties
CC(=O)NC[C@H]1CN(c2ccc(N3CCOCC3)c(F)c2)C(=O)O1 [linezolid, reference compound]	–	–	50 (≈ 148 µM)	–	50 (≈ 148 µM)	–	50 (≈ 148 µM)	–	bacteriostatic properties
